One compound from ChEMBL document CHEMBL5584343, “Cerastecin Inhibition of the Lipooligosaccharide Transporter MsbA to Combat Acinetobacter baumannii: From Screening Impurity to In Vivo Efficacy” (J Med Chem, 2024) can be followed below.

A short description of data set [1]: Plasma protein binding in human at 1000 to 100000 ng/ml by equilibrium dialysis based LC-MS/MS analysis. It counts as ADME, cell-free. The note with it: dose 1000-100000 ng/ml, read-out: PPB (converted). For orientation: In equilibrium dialysis only unbound substance equilibrates across the membrane.
Data set [2] is described as follows: Cytotoxicity against GFP fused human MT4 cells cultured under serum free condition for 24 hrs by CellTiter-Glo assay. Format: toxicity, cell-based. The note with it: GFP fused MT4 cells.
Data set [3] concerns Acinetobacter baumannii. In words: Antibacterial activity against Acinetobacter baumannii ATCC19606 incubated for 18 to 20 hrs in presence of 50% mouse serum by microbroth dilution method. Format: functional. The note with it: time 18-20 hrs. (Dilution methods test growth across graded concentrations, often in twofold steps.)
Data set [4] relates to Acinetobacter baumannii. Nature of the data set: Antibacterial activity against Acinetobacter baumannii CLB21655 infected in female DBA mouse blood stream infection model assessed as fold change in colony forming units in spleen at 300 mg/kg, sc pre-infected with bacteria for 0.5 hrs followed by once daily compound administration and measured after 8 hrs relative to control. Format: functional.

Data set [5] can be described thus: Plasma protein binding in C57BL/6 mouse at 1000 to 100000 ng/ml by equilibrium dialysis based LC-MS/MS analysis. It counts as ADME, cell-free. As to conditions: dose 1000-100000 ng/ml, read-out: PPB (converted).
The nature of data set [6]: Plasma protein binding in dog at 1000 to 100000 ng/ml by equilibrium dialysis based LC-MS/MS analysis. Format: ADME, cell-free, Canis lupus familiaris. The note with it: dose 1000-100000 ng/ml, read-out: PPB (converted).
For data set [7], the system named is Acinetobacter baumannii. In words: Antibacterial activity against Acinetobacter baumannii ATCC19606 assessed as bacterial growth inhibition incubated for 18 to 20 hrs by microbroth dilution method. Format: functional. The note with it: time 18-20 hrs.
In data set [8] the test system is Acinetobacter baumannii. Nature of the data set: Antibacterial activity against Acinetobacter baumannii CLB21655 infected in female DBA mouse lung infection model assessed as fold change in colony forming units in lung at 300 mg/kg, sc pre-infected with bacteria for 2 hrs followed by thrice daily compound administration with 6 hrs interval and measured after 24 hrs relative to control. Format: functional.

Data set [9] can be described thus: Inhibition of wildtype Acinetobacter baumannii MsbA preincubated for 30 mins followed by ATP addition and measured after 1 hrs by Transcreener ADP2 F1 assay.
Data set [10] can be described thus: Cmax in male C57BL/6 mouse at 300 mg/kg, sc administered once in a day and measured after 24 hrs by LC-MS/MS analysis. Format: ADME, organism-based. The note with it: in vivo.
Data set [11] in a line: AUC (0 to infinity) in male C57BL/6 mouse at 300 mg/kg, sc administered 3 times a day with 3 hrs interval and measured after 24 hrs by LC-MS/MS analysis. It counts as ADME, organism-based. As to conditions: mouse, in vivo, sc, 300 mg/kg, 24 h.
Data set [12] deals with Acinetobacter baumannii. In words: Antibacterial activity against Acinetobacter baumannii CLB21655 infected in female DBA mouse blood stream infection model assessed as reduction in bacterial burden in spleen at 300 mg/kg, sc pre-infected with bacteria for 0.5 hrs followed by once daily compound administration and measured after 8 hrs (reference value: 6.5 log10CFU/g). Format: functional.

The test system of data set [13] is Acinetobacter baumannii. Nature of the data set: Selectivity ratio of MIC95 for antibacterial activity against Acinetobacter baumannii ATCC19606 in the presence of 10% human serum to MIC95 for antibacterial activity against Acinetobacter baumannii ATCC19606. Format: functional.
The nature of data set [14]: AUC (0 to infinity) in male C57BL/6 mouse at 300 mg/kg, sc administered once in a day and measured after 24 hrs by LC-MS/MS analysis. It counts as ADME, organism-based. The note with it: mouse, in vivo, sc, 300 mg/kg, 24 h.
Data set [15] in a line: Cmax in male C57BL/6 mouse at 300 mg/kg, sc administered 3 times a day with 3 hrs interval and measured after 24 hrs by LC-MS/MS analysis. It counts as ADME, organism-based. As to conditions: in vivo.
In data set [16] the test system is Acinetobacter baumannii. In words: Antibacterial activity against Acinetobacter baumannii ATCC19606 incubated for 18 to 20 hrs in presence of 10% human serum by microbroth dilution method. Format: functional. The note with it: time 18-20 hrs.
For data set [17], the system named is Acinetobacter baumannii. Nature of the data set: Antibacterial activity against Acinetobacter baumannii CLB21655 infected in female DBA mouse lung infection model assessed as reduction in bacterial burden in lung at 300 mg/kg, sc pre-infected with bacteria for 2 hrs followed by thrice daily compound administration with 6 hrs interval and measured after 24 hrs (reference value: 6.3 log10CFU/g). It counts as functional.

Converted amounts (≈) assume the structure as drawn. A value given as a limit tells only on which side of the number the result lay.

A word on the EC50: it is the concentration that produces a half-maximal response. Lower therefore signals an effect from little substance. The Cmax is the peak of the concentration-time curve. A word on the AUC: it is concentration integrated over time. `O=C(O)c1cc(CN2CC(Oc3ccc(NS(=O)(=O)c4cnn(-c5ccc(F)cc5)c4)c(C(=O)O)c3)C2)ccc1NS(=O)(=O)c1cnn(-c2ccc(F)cc2)c1`: the fraction unbound was 0.006 in data set [1], 0.002 in data set [5] and 0.004 in data set [6]. For the same compound, the EC50 at 24 h in data set [2] was greater than 42000 nM. Moreover, the MIC95 in the data set on Acinetobacter baumannii [3] was found to be 50 µM; in the data set with Acinetobacter baumannii [7] it was 0.277 µM (≈ 0.223 µg/mL); with Acinetobacter baumannii [16], 6.25 µM. In addition, the “fold change (FC)” value is 3.2 in the data set with Acinetobacter baumannii [4] and 1.9 with Acinetobacter baumannii [8]. For the same compound, in [9], a half-maximal effect (EC50) was put at 69 nM. For the same compound, the peak concentration (Cmax) came to 662 µM in [10] and 626 µM in data set [15]. Further, the AUC in data set [11] came out at 22200 µM·h; in data set [14] it was 2270 µM·h. Besides, the values for the Activity in the data set with Acinetobacter baumannii [12] and with Acinetobacter baumannii [17] were 3.3 log10CFU/g and 4.4 log10CFU/g, respectively. Further, the Selectivity ratio with Acinetobacter baumannii [13] turned out to be 23.
